Results as given in US20100138957A1 (priority 2007, published 2010).

Columns and labels:
Pseudomonas aeruginosa = details: cited from earlier work
Xylella fastidiosa = details: in vivo
[1] = tested on: 18 bacterial and fungal microorganisms; details: cited from earlier work
[2] = tested on: pathogenic Vibrio bacteria; details: intraperitoneal injection, juvenile coho salmon; cited from earlier work
[3] = tested on: human intestinal epithelial cells; details: cited from earlier work

For KWKLFKKIGIGAVLKV TTGLPALKTLK [CEMA], the MIC (Pseudomonas aeruginosa) is given as 2.8 μg per ml.

With “MAKWKLFKKIGIGFKKAAHVGKAALTK [B-passerin]” the “time plants survived stringent disease challenges with no or lessened visible symptoms” value (Xylella fastidiosa) was “up to 12 months”, the “time surviving plants remained symptomless” value (Xylella fastidiosa) was “over 8 months” and the “transgenic plants that survived the high stringency greenhouse test” value (Xylella fastidiosa) was 90%.

In the case of “Pleurocidin: 25-residue cationic antimicrobial peptide from skin secretions of winter flounder (GWGSFFKKAAHVGKHVGKAALTHYL; Pleurocidin; UniProt P81941 23-47, looked up)”, the “microorganisms against which the peptide was effective” value [1] is listed as 17 of the 18, the “efficacy against lethal vibriosis compared to CEME” value [2] is listed as “more effective” and the cytotoxic effects [3] is listed as “no cytotoxic effects”.
